{
  "source": "patent US11366116B1",
  "about": "“Real time autonomous surveillance of pathogens” (priority 2017, dated 2022)",
  "tested_on": "Culex tarsalis mosquitoes",
  "test": "Observation of mosquitoes feeding upon scented, spun (cotton candy) baits",
  "type": "in vivo",
  "conditions": "for Number of mosquitos observed feeding each scent: scented spun cotton candy bait",
  "text": "One strategy for a solid bait that we tested was a “cotton candy” or spun sugar bait (FIG. 11). The cotton candy could be pressed into the feeding well, over and on top of a dried enzyme pellet and a ball bearing for magnetic mixing. We anticipated this would allow a large surface area for mosquitoes to feed, as well as dissolve instantly upon adding a drop of rehydration buffer. Plain cotton candy made from pure sucrose turned out to be unstable upon storage for more than a few days, and we subsequently devised a way to modify the cotton candy by melting a polymer (PEG) with the sugar prior to spinning, to stabilize it against shriveling in ambient humidity. […] Based on this experiment (Table 1), we determined that both honey and plumeria could be used as attractants for sugar-feeding Culex tarsalis mosquitoes.",
  "data": [
    {"molecule": "O=CCc1ccccc1", "note": "[Phenylacetaldehyde]", "values": [
      {"measurement": "Number of mosquitos observed feeding each scent", "setting": "Day 0", "result": 0},
      {"measurement": "Number of mosquitos observed feeding each scent", "setting": "Day 1", "result": 5},
      {"measurement": "Number of mosquitos observed feeding each scent", "setting": "Day 2", "result": 1},
      {"measurement": "Number of mosquitos observed feeding each scent", "setting": "Day 3", "result": 4},
      {"measurement": "Number of mosquitos observed feeding each scent", "setting": "Day 4", "result": 3},
      {"measurement": "Number of mosquitos observed feeding each scent, Sum", "setting": "Sum of Day 0 to Day 4", "result": 13}
    ]}
  ]
}
